Test results taken from patent US10590132B2, “Selective estrogen receptor down-regulators” (AstraZeneca AB, priority 2017, dated 2020).

experiment: Human plasma protein binding (equilibrium dialysis); type: in vitro ADME; conditions: dialysis 18 hours

Going from `Cc1ccc2[nH]c3c(c2c1)C[C@@H](C)N(CC(F)(F)CO)[C@@H]3c1c(F)cnc(OCCNCCCF)c1F` [Example 66, 3-((1R,3R)-1-(3,5-difluoro-2-(2-((3-fluoropropyl)amino)ethoxy)pyridin-4-yl)-3,6-dimethyl-1,3,4,9-tetrahydro-2H-pyrido[3,4-b]indol-2-yl)-2,2-difluoropropan-1-ol] to `C[C@@H]1Cc2c([nH]c3ccc(F)cc23)[C@@H](c2c(F)ccc(OCCNCCCF)c2F)N1CC(F)(F)CO` [Example 15, 3-((1R,3R)-1-(2,6-difluoro-3-(2-((3-fluoropropyl)amino)ethoxy)phenyl)-6-fluoro-3-methyl-1,3,4,9-tetrahydro-2H-pyrido[3,4-b]indol-2-yl)-2,2-difluoropropan-1-ol], the “Human plasma protein binding (% free)” value rises from 1.3 % free to 3.2 % free.

Compared with `C[C@@H]1Cc2c([nH]c3cc(F)ccc23)[C@@H](c2c(F)ccc(OCCNCCCF)c2F)N1CC(F)(F)CO` [Example 61, 3-((1R,3R)-1-(2,6-difluoro-3-(2-((3-fluoropropyl)amino)ethoxy)phenyl)-7-fluoro-3-methyl-1,3,4,9-tetrahydro-2H-pyrido[3,4-b]indol-2-yl)-2,2-difluoropropan-1-ol], `COc1ccc(OCCNCCCF)c(F)c1[C@@H]1c2[nH]c3ccc(F)cc3c2C[C@@H](C)N1CC(F)(F)CO` [Example 86, 2,2-difluoro-3-((1R,3R)-6-fluoro-1-(2-fluoro-3-(2-((3-fluoropropyl)amino)ethoxy)-6-methoxyphenyl)-3-methyl-1,3,4,9-tetrahydro-2H-pyrido[3,4-b]indol-2-yl)propan-1-ol] is higher in “Human plasma protein binding (% free)” value: 2.0 % free for the first, 2.6 % free for the second.

Going from `COc1ccc(OCCNCCCF)nc1[C@@H]1c2[nH]c3ccccc3c2C[C@@H](C)N1CC(F)(F)F` [Example 56, 3-fluoro-N-(2-((5-methoxy-6-((1S,3R)-3-methyl-2-(2,2,2-trifluoroethyl)-2,3,4,9-tetrahydro-1H-pyrido[3,4-b]indol-1-yl)pyridin-2-yl)oxy)ethyl)propan-1-amine] to `Cc1ccc(OCCNCCCF)nc1[C@@H]1c2[nH]c3ccccc3c2C[C@@H](C)N1CC(F)(F)F` [Example 105, 3-fluoro-N-(2-((5-methyl-6-((1S,3R)-3-methyl-2-(2,2,2-trifluoroethyl)-2,3,4,9-tetrahydro-1H-pyrido[3,4-b]indol-1-yl)pyridin-2-yl)oxy)ethyl)propan-1-amine], the “Human plasma protein binding (% free)” value falls from 4.6 % free to 1 % free.

First: Cc1c([C@@H]2c3[nH]c4ccccc4c3C[C@@H](C)N2CC(F)(F)F)ccnc1OCCNCCCF [Example 106, 3-fluoro-N-(2-((3-methyl-4-((1R,3R)-3-methyl-2-(2,2,2-trifluoroethyl)-2,3,4,9-tetrahydro-1H-pyrido[3,4-b]indol-1-yl)pyridin-2-yl)oxy)ethyl)propan-1-amine]
Second: Cc1ncc(OCCNCCCF)cc1[C@@H]1c2[nH]c3ccccc3c2C[C@@H](C)N1CC(F)(F)F [Example 37, 3-fluoro-N-(2-((6-methyl-5-((1R,3R)-3-methyl-2-(2,2,2-trifluoroethyl)-2,3,4,9-tetrahydro-1H-pyrido[3,4-b]indol-1-yl)pyridin-3-yl)oxy)ethyl)propan-1-amine]
The “Human plasma protein binding (% free)” value of the first is lower: 0.34 % free for the first, 2.3 % free for the second.

Compared with `C[C@@H]1Cc2c([nH]c3ccccc23)[C@@H](c2c(F)ccc(OCCNCCCF)c2Cl)N1CC(C)(C)C(=O)O` [Example 131, 3-((1R,3R)-1-(2-chloro-6-fluoro-3-(2-((3-fluoropropyl)amino)ethoxy)phenyl)-3-methyl-1,3,4,9-tetrahydro-2H-pyrido[3,4-b]indol-2-yl)-2,2-dimethylpropanoic acid], `C[C@@H]1Cc2c([nH]c3ccccc23)[C@@H](c2c(F)ccc(OCCNCCCF)c2F)N1CC1(S(C)(=O)=O)CC1` [Example 77, N-(2-(2,4-difluoro-3-((1R,3R)-3-methyl-2-((1-(methylsulfonyl)cyclopropyl)methyl)-2,3,4,9-tetrahydro-1H-pyrido[3,4-b]indol-1-yl)phenoxy)ethyl)-3-fluoropropan-1-amine] is lower in “Human plasma protein binding (% free)” value: 32 % free for the first, 5.5 % free for the second.

Compared with `C[C@@H]1Cc2c([nH]c3ccccc23)[C@@H](c2cc(OCCNCCCF)cc(F)c2F)N1CC(F)(F)F` [Example 30, N-(2-(3,4-difluoro-5-((1R,3R)-3-methyl-2-(2,2,2-trifluoroethyl)-2,3,4,9-tetrahydro-1H-pyrido[3,4-b]indol-1-yl)phenoxy)ethyl)-3-fluoropropan-1-amine], `COc1c(F)cc(OCCNCCCF)cc1[C@@H]1c2[nH]c3ccccc3c2C[C@@H](C)N1CC(F)(F)F` [Example 27, 3-fluoro-N-(2-(3-fluoro-4-methoxy-5-((1R,3R)-3-methyl-2-(2,2,2-trifluoroethyl)-2,3,4,9-tetrahydro-1H-pyrido[3,4-b]indol-1-yl)phenoxy)ethyl)propan-1-amine] is lower in “Human plasma protein binding (% free)” value: 0.72 % free for the first, 0.42 % free for the second.

Compared with `COc1ccc(OCCNCCCF)c(F)c1[C@@H]1c2[nH]c3ccccc3c2C[C@@H](C)N1CC1(F)CC1` [Example 83, 3-fluoro-N-(2-(2-fluoro-3-((1R,3R)-2-((1-fluorocyclopropyl)methyl)-3-methyl-2,3,4,9-tetrahydro-1H-pyrido[3,4-b]indol-1-yl)-4-methoxyphenoxy)ethyl)propan-1-amine], `C[C@@H]1Cc2c([nH]c3ccccc23)[C@@H](c2c(F)cnc(OCCNCCCF)c2F)N1CC1(F)CC1` [Example 108, N-(2-((3,5-difluoro-4-((1R,3R)-2-((1-fluorocyclopropyl)methyl)-3-methyl-2,3,4,9-tetrahydro-1H-pyrido[3,4-b]indol-1-yl)pyridin-2-yl)oxy)ethyl)-3-fluoropropan-1-amine] is lower in “Human plasma protein binding (% free)” value: 2.5 % free for the first, 2.3 % free for the second.

First: Cc1c(OCCN(C)CCCF)ccc(F)c1[C@@H]1c2[nH]c3ccccc3c2C[C@@H](C(F)(F)F)N1C[C@H](C)C(=O)O [Example 149, (S)-3-((1R,3S)-1-(6-fluoro-3-(2-((3-fluoropropyl)(methyl)amino)ethoxy)-2-methylphenyl)-3-(trifluoromethyl)-1,3,4,9-tetrahydro-2H-pyrido[3,4-b]indol-2-yl)-2-methylpropanoic acid]
Second: C[C@@H]1Cc2c([nH]c3ccccc23)[C@@H](c2nccc(OCCNCCCF)c2F)N1CC(F)(F)CO [Example 97, 2,2-difluoro-3-((1S,3R)-1-(3-fluoro-4-(2-((3-fluoropropyl)amino)ethoxy)pyridin-2-yl)-3-methyl-1,3,4,9-tetrahydro-2H-pyrido[3,4-b]indol-2-yl)propan-1-ol]
The “Human plasma protein binding (% free)” value of the first is lower: 5.3 % free for the first, 6.8 % free for the second.

With `C[C@@H]1Cc2c([nH]c3ccccc23)[C@@H](c2cc(OCCNCCCF)ccn2)N1CC(F)(F)F` [Example 35, 3-fluoro-N-(2-((2-((1S,3R)-3-methyl-2-(2,2,2-trifluoroethyl)-2,3,4,9-tetrahydro-1H-pyrido[3,4-b]indol-1-yl)pyridin-4-yl)oxy)ethyl)propan-1-amine] the “Human plasma protein binding (% free)” value was 5.4 % free.

With `COc1c(F)cc(OCCNCCCF)c(F)c1[C@@H]1c2[nH]c3ccccc3c2C[C@@H](C)N1CC(F)(F)F` [Example 29, N-(2-(2,5-difluoro-4-methoxy-3-((1R,3R)-3-methyl-2-(2,2,2-trifluoroethyl)-2,3,4,9-tetrahydro-1H-pyrido[3,4-b]indol-1-yl)phenoxy)ethyl)-3-fluoropropan-1-amine] the “Human plasma protein binding (% free)” value was less than 3.2 % free.
